We go through two compounds from patent publication US6127382A, “Amines substituted with a tetrahydroquinolinyl group an aryl or heteroaryl group and an alkyl group, having retinoid-like biological activity” (Allergan Sales, Inc., priority 1999, dated 2000).

In one assay the test system is ornithine decarboxylase. The settings on record: literature; cited from earlier work.
Another assay addresses T1, RARβ (Homo sapiens, UniProt P10826).
T1 sequence (P10826 1-448 isoform P10826-2): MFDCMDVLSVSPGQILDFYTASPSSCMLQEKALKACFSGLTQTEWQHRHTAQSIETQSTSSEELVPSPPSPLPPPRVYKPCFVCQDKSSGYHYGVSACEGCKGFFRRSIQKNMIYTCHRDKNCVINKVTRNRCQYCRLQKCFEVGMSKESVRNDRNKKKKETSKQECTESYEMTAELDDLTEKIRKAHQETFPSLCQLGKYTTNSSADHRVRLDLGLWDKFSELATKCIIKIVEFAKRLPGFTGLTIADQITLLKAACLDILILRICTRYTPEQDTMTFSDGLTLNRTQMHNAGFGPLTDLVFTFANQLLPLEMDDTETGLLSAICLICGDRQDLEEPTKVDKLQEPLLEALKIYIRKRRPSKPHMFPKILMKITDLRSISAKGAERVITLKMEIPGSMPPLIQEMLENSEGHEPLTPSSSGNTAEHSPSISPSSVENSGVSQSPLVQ
Briefly: ligand binding assay, RARβ. As to conditions: read-out: RAR Bind Ki β. An excerpt: (§1) Other assays described below, measure the ability of the compounds of the present invention to bind to, and/or activate various retinoid receptor subtypes. When in these assays a compound binds to a given receptor subtype and activates the transcription of a reporter gene through that subtype, then the compound is considered an agonist of that receptor subtype. […] In the below described assays the ability of the compounds to bind to RARα, RARβ, RARγ, RXRα, RXRβ and RXRγ receptors, and the ability or inability of the compounds to activate transcription of a reporter gene through these receptor subtypes can be tested. […] However, some of the compounds of the invention may behave as retinoid antagonists or partial antagonists and/or as inverse agonists. Because of the complex distribution of the different retinoid receptors in various organs of the mammalian body partial agonists and partial antagonists and compounds which have the characteristics of both may lend themselves to particularly useful therapeutic applications and may avoid serious side effects of conventional retinoid drugs.
(§2) A holoreceptor transactivation assay and a ligand binding assay which measure the antagonist/agonist like activity of the compounds of the invention, or their ability to bind to the several retinoid receptor subtypes, respectively, are described in published PCT Application No. WO WO93/11755 (particularly on pages 30-33 and 37-41) published on Jun. 24, 1993, the specification of which is also incorporated herein by reference. A detailed experimental procedure for holoreceptor transactivations has been described by Heyman et al. Cell 68, 397-406, (1992); Allegretto et al. J. Biol. Chem. 268, 26625-26633, and Mangelsdorf et al. The Retinoids: Biology, Chemistry and Medicine, pp 319-349, Raven Press Ltd., New York, which are expressly incorporated herein by reference. The results obtained in this assay are expressed in EC50 numbers, as they are also in the chimeric receptor transactivation assay. The results of ligand binding assay are expressed in Kd numbers. (See Cheng et al. Biochemical Pharmacology Vol. 22 pp 3099-3108, expressly incorporated herein by reference.)
(§3) Table 1 discloses the activity of certain exemplary compounds of the invention in the above-described chimeric receptor transactivation assay, holoreceptor transactivation assay and a ligand binding assays. Particularly, the transactivation data pertaining to RAR receptors were obtained in the chimeric assay, and the data pertaining to transactivation of RXR receptors were obtained in the holoreceptor transactivation assay.

For the next assay, the target named is T2, RXRγ (Homo sapiens, UniProt P48443).
T2 sequence (P48443 1-463): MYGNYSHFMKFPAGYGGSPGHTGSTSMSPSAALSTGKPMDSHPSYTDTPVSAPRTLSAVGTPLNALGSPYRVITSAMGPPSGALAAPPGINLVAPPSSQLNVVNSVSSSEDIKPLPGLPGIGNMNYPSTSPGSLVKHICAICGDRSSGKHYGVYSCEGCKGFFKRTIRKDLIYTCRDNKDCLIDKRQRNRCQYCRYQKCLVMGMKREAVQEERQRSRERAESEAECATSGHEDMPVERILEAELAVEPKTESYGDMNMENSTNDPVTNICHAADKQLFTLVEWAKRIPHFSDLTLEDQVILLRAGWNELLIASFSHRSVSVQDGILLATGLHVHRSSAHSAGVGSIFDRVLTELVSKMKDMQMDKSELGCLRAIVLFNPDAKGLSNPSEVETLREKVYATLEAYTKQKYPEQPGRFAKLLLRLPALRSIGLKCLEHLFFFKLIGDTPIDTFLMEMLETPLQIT
In words: ligand binding assay, RXRγ. The settings on record: read-out: RXR Bind Ki γ.
Text: as §1, §2, §3

The target in a further assay is T3, RXRα (Homo sapiens, UniProt P19793).
T3 construct: expressed in transfected cells
T3 sequence (P19793 1-462): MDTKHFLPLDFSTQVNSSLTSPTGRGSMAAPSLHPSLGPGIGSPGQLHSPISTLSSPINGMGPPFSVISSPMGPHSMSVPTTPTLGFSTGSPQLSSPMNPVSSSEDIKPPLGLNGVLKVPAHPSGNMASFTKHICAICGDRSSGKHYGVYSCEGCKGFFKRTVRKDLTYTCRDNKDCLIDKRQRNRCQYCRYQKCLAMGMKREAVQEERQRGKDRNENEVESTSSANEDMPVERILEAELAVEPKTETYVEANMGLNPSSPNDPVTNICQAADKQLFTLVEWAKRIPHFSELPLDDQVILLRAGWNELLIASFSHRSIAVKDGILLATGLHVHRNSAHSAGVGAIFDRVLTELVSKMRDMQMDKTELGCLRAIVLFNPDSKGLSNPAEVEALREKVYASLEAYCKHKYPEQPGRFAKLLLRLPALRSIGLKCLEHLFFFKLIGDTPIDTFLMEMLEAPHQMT
In words: ligand binding assay, RXRα. As to conditions: read-out: RXR Bind Ki α.
Text: as §1, §2, §3

In another assay the target is T4, RARα (Homo sapiens, UniProt P10276).
T4 sequence (P10276 1-462): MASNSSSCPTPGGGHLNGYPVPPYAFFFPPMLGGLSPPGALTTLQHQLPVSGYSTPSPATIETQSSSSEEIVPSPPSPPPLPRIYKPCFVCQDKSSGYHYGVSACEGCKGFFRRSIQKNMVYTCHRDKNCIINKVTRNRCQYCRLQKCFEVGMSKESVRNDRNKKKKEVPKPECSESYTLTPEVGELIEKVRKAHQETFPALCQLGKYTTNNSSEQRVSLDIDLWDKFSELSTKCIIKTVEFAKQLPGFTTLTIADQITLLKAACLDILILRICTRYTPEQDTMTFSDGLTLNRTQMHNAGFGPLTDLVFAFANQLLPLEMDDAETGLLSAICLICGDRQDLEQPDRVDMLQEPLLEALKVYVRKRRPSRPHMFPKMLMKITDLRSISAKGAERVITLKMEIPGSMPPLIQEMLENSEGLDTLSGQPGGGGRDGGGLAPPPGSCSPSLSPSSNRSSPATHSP
Briefly: ligand binding assay, RARα. As to conditions: read-out: RAR Bind Ki α.
Text: as §1, §2, §3

For the next assay, the target named is T5, RARγ (Homo sapiens, UniProt P13631).
T5 sequence (P13631 1-454): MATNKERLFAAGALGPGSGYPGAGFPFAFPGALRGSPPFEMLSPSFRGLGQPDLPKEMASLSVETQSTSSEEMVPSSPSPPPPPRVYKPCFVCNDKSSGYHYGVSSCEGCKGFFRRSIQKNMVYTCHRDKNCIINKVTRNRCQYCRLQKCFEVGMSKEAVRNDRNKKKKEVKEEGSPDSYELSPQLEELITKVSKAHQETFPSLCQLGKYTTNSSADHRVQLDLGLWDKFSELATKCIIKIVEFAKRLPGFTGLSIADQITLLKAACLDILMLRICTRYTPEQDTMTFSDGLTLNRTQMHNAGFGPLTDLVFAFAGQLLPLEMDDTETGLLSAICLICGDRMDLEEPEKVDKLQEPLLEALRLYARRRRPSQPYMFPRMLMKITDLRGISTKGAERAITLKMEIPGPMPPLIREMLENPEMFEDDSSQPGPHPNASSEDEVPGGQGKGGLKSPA
Briefly: ligand binding assay, RARγ. As to conditions: read-out: RAR Bind Ki γ.
Text: as §1, §2, §3

As to `CC1=C(/C=C/C(C)=C/C=C/C(C)=C/C(=O)O)C(C)(C)CCC1` [Retinoic acid, retinoic acid], the “inhibition of induction of ODC activity by TPA” value in the assay with ornithine decarboxylase is listed as “inhibits this induction of ODC activity by TPA”.
In the case of `CC(C)N1C(=O)CC(C)(C)c2cc(N(C)c3ccc(C(=O)O)cc3)ccc21` [Compound 5, 4-[(1-Isopropyl-4,4-dimethyl-2-oxo-1,2,3,4-tetrahydroquinolin-6-yl)methylamino]benzoic Acid], the Ki at RARβ is greater than 30 µM; at RXRγ, greater than 100 µM; at RXRα, 56 µM; at RARα, greater than 30 µM; on RARγ it was greater than 30 µM.
